Source: patent US6399658B1, “Composition containing ascorbic acid” (Sumitomo Pharmaceuticals Co., Ltd., priority 1996, dated 2002)

How the values were obtained:
3T3-L1 adipocytes = test: Lactic acid increase induced by metformin hydrochloride in 3T3-L1 adipocytes; format: cell-based, mouse; conditions: for Lactic acid levels: additive 40 mM together with metformin hydrochloride 10 mM, medium after 24 hr, 30% O2/5% CO2
Method: Then the cells were differentiated to adipocytes according to the following procedure. […] The medium was changed with the same fresh medium every 48 hr until experiments. Lactic acid levels were measured by enzyme assay on lactate dehydrogenase and glutamate pyruvate transaminase, using Lactate Test BMY (Boehringer Mannheim). To the plate of the differentiated 3T3-L1 cells were added metoformin hydrochloride (10 mM) and various acids (40 mM), and the differentiated 3T3-L1 cells were incubated under 30% O2/5% CO2 condition for 24 hr. Lactic acid levels in the medium were measured.

KKAy mice [1] = test: Reduction of blood sugar levels in diabetic model animals (KKAy mice), metformin hydrochloride + L-ascorbic acid study; format: in vivo, mouse; conditions: p.o. twice a day for 5 days; for Blood glucose levels: 2 hr after last administration, metformin hydrochloride 600, L-ascorbic acid 2900, metformin hydrochloride 600 + L-ascorbic acid 2900 mg/kg/dose
Description: . The experimental schedule was as follows.

[2] = tested on: rat hepatocytes primary culture; test: Inhibition of gluconeogenesis in rat hepatocytes primary culture; format: cell-based; conditions: 6 hr; for Glucose levels in the medium: Hanks solution containing 0.1% fructose
Method: Hepatocytes were isolated from a male Wistar rat. The isolated hepatocytes were grown on gelatin coated 24-well plate (3×10^5 cells/well) in Williams E medium containing 10 nM dexamethasone and 5% fetal calf serum under the 37° C., 5% CO2/95% air condition for 24 hr.
After the plates of hepatocytes primary culture were washed by phosphate buffer twice, the medium were changed to Hanks solution containing 0.1% fructose (depletion glucose). […] Glucose levels (mg/dL) in the medium were measured.

KKAy mice [3] = test: Reduction of blood sugar levels in diabetic model animals (KKAy mice), metformin L-ascorbate study; conditions: p.o. twice a day for 5 days; for Blood glucose levels: 2 hr after last administration, metformin hydrochloride 600, L-ascorbic acid 800, metformin L-ascorbate 1400 mg/kg/dose
5/6 nephrectomy rats = conditions: p.o. twice a day for 4 days
Description: After 5-week old Wistar rats were acclimatized for 7 to 10 days, 2/3 of left kidney were removed. After the rats were bred and observed for 7 days, all right kidney was removed. After the rats were bred and observed for 7 to 10 days, the rats were used for experiments.
The experimental schedule was as follows. 5/6 Nephrectomy rats were divided into four groups according to their weight, blood urea nitrogen levels and serum creatinine levels after preliminary breeding and observation after purchase. […] The volume of administrated liquids was 5 mL/kg/dose. […] Blood was collected from tail vein under ether anesthetics at the day 5, and the blood lactic acid levels were measured.

Row | SMILES | Lactic acid levels (3T3-L1 adipocytes) | Blood glucose levels (KKAy mice [1]) | Blood glucose levels (KKAy mice [3]) | Effect for reducing blood glucose levels (in words) (KKAy mice [3]) | other results
1 | O=C(O)CC(O)(CC(=O)O)C(=O)O [Citric acid, citric acid] | 155 mg/dL |  |  |  | 
2 | O=C1O[C@H]([C@@H](O)CO)C(O)=C1O [L-ascorbic acid] | 73 mg/dL | 367.0 ± 45.3 mg/dL | 392.8 ± 45.3 mg/dL |  | Glucose levels in the medium ([2]; 1 mM (each 1 mM for the combination)): 14.6 mg/dL; Glucose levels in the medium ([2]; 3 mM (each 3 mM for the combination)): 10.6 mg/dL; Effect on gluconeogenesis (in words) ([2]; 1 or 3 mM): Gluconeogenesis was reduced; Effect on lactic acid increase induced by metformin hydrochloride (in words) (3T3-L1 adipocytes; 40 mM with metformin hydrochloride 10 mM, 24 hr): prevented lactic acid increase induced by metformin hydrochloride
3 | O=C(O)CC(O)C(=O)O (stereo not shown) [Malic acid, malic acid] | 143 mg/dL |  |  |  | 
4 | CN(C)C(=N)N=C(N)N.O=C1OC(C(O)CO)C(O)=C1O [Metformin L-ascorbate] |  |  | 270.3 ± 78.2 mg/dL | Significant effects for reducing blood glucose levels | Blood lactic acid levels (5/6 nephrectomy rats; blood at day 5, metformin hydrochloride 250 mg/kg/dose, metformin L-ascorbate 461 mg/kg/dose, metformin hydrochloride 250 + L-ascorbic acid 266 mg/kg/dose (same moles of metformin)): 40.2 ± 6.2 (†)(*) mg/dL; Blood lactic acid levels compared with metformin hydrochloride group (in words) (5/6 nephrectomy rats; day 5): significantly lower than metformin hydrochloride group; Blood lactic acid levels compared with vehicle group (in words) (5/6 nephrectomy rats; day 5): significantly higher than vehicle group
5 | CN(C)C(=N)NC(=N)N.Cl [Metformin hydrochloride, 1,1-dimethylbiguanide hydrochloride] |  | 286.5 ± 63.1 mg/dL | 247.6 ± 30.2 mg/dL | Significant effects for reducing blood glucose levels | Effect for reducing blood glucose levels (in words) (KKAy mice [1]): Significant effects for reducing blood glucose levels
6 | O=C(O)CCC(=O)O [Succinic acid, succinic acid] | 145 mg/dL |  |  |  | 
